# Article PMC8070745, “FEN1 Blockade for Platinum Chemo-Sensitization and Synthetic Lethality in Epithelial Ovarian Cancers” (Cancers, 2021)
# Tests used:
# [1] = system: A2780cis cells; experiment: Clonogenic assay, A2780cis; assay type: cell-based, human; conditions: pre-treatment with importin β inhibitor, then cisplatin vs cisplatin only
# Protocol: Clonogenic assay: In the clonogenic assay (colony formation assays), 32 cells/cm2 were seeded in 6-well plates and left at 37°C in a 5% CO2 atmosphere. Cisplatin (5µM) and/or FEN1i (10µM) and/or Importazole (5 µM, Selleckem, S8446 ) were added at the indicated concentrations and the plates were left at 37 °C in a 5% CO 2 atmosphere for 14 days. Later, the plates were washed with PBS, fixed and stained with a crystal violet, acetic acid and methanol solution and colonies were counted. […]
# [2] = system: FEN1 nuclear localization in A2780cis cells; experiment: Confocal microscopy of FEN1 nuclear localization, A2780cis; assay type: cell-based, human; conditions: pre-treatment with importin β inhibitor (5 µM) followed by cisplatin
# Protocol: For PEO1 and PEO4 cells, the cells where keep in culture up to four weeks ([…]) until spheroids structures were formed.
# To quantify cell viability, LIVE/DEAD Viability/Cytotoxicity Kit (L3224, Thermo Fisher Scientific) was used. Briefly, the spheroids were harvest by trypsinization, washed with PBS and centrifuge at 1000×g for 5 minutes. The light-protected cellular pellet in PBS was loaded with 0.1µM of Calcein-AM and 1 µM of Ethidium homodimer-1 for 20 minutes at room temperature. The samples were analysed on a Beckman-Coulter FC500 flow cytometer using a 495nm laser for excitation and a 515nm laser for emission data for Calcein AM and a 495nm laser for excitation and emission at 635nm for Ethidium Homodimer-1. In addition, Image J software was used to calculate spheroid diameter. Mean of three diagonal diameters was taken as diameter for each spheroid. At least 10 spheroids were measured. […]
# Laboratories). Imaging was carried out using Leica SP2 confocal laser scanning microscope (CLSM) and analysed with ImageJ software (NIH, USA). For analysis a minimum of 100 cells per slide were counted.
# On 3D structures, the spheroids were fixed with 4% paraformaldehyde for 30 minutes. […] Imaging was carried out using Leica SP2 confocal laser scanning microscope (CLSM) and analysed with ImageJ software (NIH, USA). […]
# [3] = system: BRCA deficient germ-line or platinum-sensitive sporadic epithelial ovarian cancers; set-up: method as in PMID 22452356, PMID 27717299, PMID 28916367, PMID 27908594; conditions: maintenance therapy in patients; cited from earlier work
Structure (SMILES),effect on cisplatin sensitivity [1],nuclear localization of FEN1 [2],progression-free survival [3]
CC(Nc1nc(N2CCCC2)nc2ccccc12)c1ccccc1 (centres unmarked) [Importanzole],re-sensitized these cells to cisplatin therapy,reduced nuclear localization of FEN1,–
NC(=O)c1cccc2cn(-c3ccc([C@@H]4CCCNC4)cc3)nc12 [Niraparib],–,–,substantially improves progression-free survival
O=C(c1cc(Cc2n[nH]c(=O)c3ccccc23)ccc1F)N1CCN(C(=O)C2CC2)CC1 [Olaparib],–,–,substantially improves progression-free survival
CNCc1ccc(-c2[nH]c3cc(F)cc4c3c2CCNC4=O)cc1 [Rucaparib],–,–,substantially improves progression-free survival
